Assay results taken from US20170216315A1 (priority 2016, published 2017).
Marks after values point to notes of the source that are not given here.

Columns and labels:
[1] = test system: glutathione peroxidase (GPx); experiment: Activity of GPx in mouse liver; assay type: in vivo, mice; details: for Activity of GPx: liver homogenate, alcoholic liquid diet, 4 weeks
male C57BL/6 mice [2] = experiment: Appearance and H&E staining of mouse liver; assay type: in vivo; details: EK100 1, 5, 10 mg/kg/day vs EtOH group
Method: (§1) C-4. After “C-3” was completed, the mice were sacrificed. The weights of the mice hearts, livers, kidneys, spleens, and abdominal and epididymal fat pads were measured and recorded; the mice livers were washed with sterilized saline, and then the liver appearances were recorded by a camera. The collected organs and feces were stored at −80° C. for the following analysis (recording, sample collection and storage were conducted for all of the 8 mice from each group).
The photographs of the mouse liver appearance of each group recorded in [Preparation Examples]
Additionally, the photographs of stained mouse liver of each group recorded in [Preparation Examples]

male C57BL/6 mice [3] = experiment: TBARS value of liver homogenate; details: for TBARS value: liver homogenate, alcoholic liquid diet, 4 weeks
CYP2E1 = experiment: Protein expression of CYP2E1 in liver (western blot); assay type: in vivo, mice; details: EK100 1, 5, 10 mg/kg/day vs EtOH group, p<0.05, FIGS. 13A, 13B
[4] = test system: alcohol dehydrogenase (ADH); experiment: Activity of ADH in liver homogenate; assay type: in vivo, mice; details: EK100 1, 5, 10 mg/kg/day vs control or EtOH group; p<0.05; FIG. 14A
Method: D-3 were analyzed. The operation steps were as follows: (i) 50 μl of liver homogenate, 50 μl of phosphate-buffered saline (PBS), and 1 ml of 0.1 M glycine-NaOH buffer (pH 10.8, 10 mM NAD^+) were well mixed; the mixture was left standing in the dark at room temperature for 4 minutes; and then the absorbance (A) of the mixture was measured at 340 nm wavelength; (ii) 50 μl of liver homogenate, 50 μl of phosphate-buffered saline (PBS), and 1 ml of 0.1 M glycine-NaOH buffer (pH 10.8, 10 mM NAD^+, 0.016 M ethanol) were well mixed; the mixture was left standing in the dark at room temperature for 4 minutes; and then the absorbance (B) of the mixture was measured at 340 nm wavelength; (iii) absorbance (A) and absorbance (B) were substituted into formula 2 below to calculate the activity of ADH (μmole/min/mg protein).

[5] = test system: aspartate aminotransferase (AST); experiment: Activity of AST in serum; assay type: in vivo, mice; details: EK100 1, 5, 10 mg/kg/day vs EtOH group; p<0.05; FIG. 8
From the text: It has been known that both aspartate aminotransferase (AST) and alanine aminotransferase (ALT) are amino acid metabolic enzymes, which are widely present in the heart, liver, skeletal muscle, kidney and brain. When cells in organs are injured, AST and ALT will be released into the blood. Therefore, the activities of AST and ALT can be used as the injury markers of the above organs to detect organ injuries, wherein the higher activities of AST and ALT represent that organ injuries are more serious. For example, there is much more ALT in the liver. A higher activity of ALT in the liver would indicate a more serious injury.
To understand the effects of alcohol consumption and ergostatrien-3β-ol intake on the injury conditions of mice organs, mouse serum samples of each group provided in [Preparation Examples] C-2 (200 μl per group) were placed into automatic dry-biochemistry analyzer (Arkray, Inc., Japan, Spotechem™ EZ, SP-4430) with AST/ALT expert analytic test paper (Arkray, Inc., Japan, Spotechem™ II) to detect the activities of AST and ALT.

male C57BL/6 mice [6] = experiment: Amounts of TAG and TC in serum; assay type: in vivo; details: EK100 1, 5, 10 mg/kg/day vs EtOH group; p<0.05; FIG. 2A
male C57BL/6 mice [7] = experiment: Hepatitis histological activity index (HAI score); assay type: in vivo; details: EK100 1, 5, 10 mg/kg/day vs EtOH group; p<0.05; FIG. 11
From the text: To further observe the inflammation of mouse liver, the internationally accepted hepatitis histological activity index (HAI score) was used to categorize the hepatitis activity into the portal zone, lobuli hepatis zone, and periportal zone, which were scored with 0 to 10 points (as shown in Table 8). […] J Insur Med. 33: 110-113 (2001),” which is incorporated herein for reference.

[8] = test system: TLR4, MyD88, NF-κB, iNOS, COX-2, α-SMA; experiment: Expressions of pro-inflammatory genes in liver (real-time PCR); assay type: in vivo, mice; details: EK100 1, 5, 10 mg/kg/day vs EtOH group, p<0.05, FIG. 10
Method: C-4 was put into a 0.8 ml RNAlater containing an RNA stabilizer (Qiagen company, United States), and then the commercial kit (E.Z.N.A™ Tissue RNA kit, purchased from Omega Bio-Tek company, United States) was used to extract the mRNA therein. After that, the mRNA sample obtained therefrom was reverse transcribed to provide cDNA, and then specific primers (as shown in Table 2) were used to conduct real-time polymerase chain reaction (real-time PCR) of the cDNA to observe the expression of each gene in the mouse liver, wherein the operation steps of the real-time polymerase chain reaction were as follows: (i) 2 μl of cDNA (50 ng/μl), 5 μl of SYBR Green (Molecular Probes company, United States, Applied Biosystems/Fast SYBR® Green Master Mix), 2 μl of RNase-free water, 1 μl of forward primer, and 1 μl of reverse primer were well mixed and then centrifuged; (ii) the above sample was put into a real-time polymerase chain reaction system (Applied Biosystems/StepOne Real time PCR system) to detect the expression of each gene, wherein the expression of GAPDH was used as the positive control.

male C57BL/6 mice [9] = experiment: Amounts of TAG and TC in liver; assay type: in vivo; details: EK100 1, 5, 10 mg/kg/day vs EtOH group; p<0.05; FIG. 2B
male C57BL/6 mice [10] = experiment: TEAC value of liver homogenate; details: for TEAC value: liver homogenate, alcoholic liquid diet, 4 weeks
[11] = Feed intake, relative weight of organs and of fat pads; assay type: in vivo, mice; details: for Relative weight of abdominal fat pad / Relative weight of epididymal fat pad / Relative weight of heart / Relative weight of kidney / Relative weight of liver / Relative weight of spleen: alcoholic liquid diet, week 4
Method: C-1. The feed intakes of mice were recorded every day (4 mice from each group were randomly picked for recording, and an average of the 4 mice was taken). The changes in the mice body weight were recorded at the last day of every week (i.e., an average of 8 mice from each group), over a four-week period.
as §1
The average values of daily feed intakes of mice of each group recorded in [Preparation Examples] Besides, the weights of mice organ and fat of each group obtained from [Preparation Examples] C-4 were averaged, respectively, and then the average weights (g) were divided by the average body weights of mice in week 4 from the corresponding group to obtain the relative weights of organs and the relative weights of fat.

[12] = EK100 1, 5, 10 mg/kg/day vs EtOH group, p<0.05

CC(C)[C@@H](C)/C=C/[C@@H](C)[C@H]1CC[C@H]2C3=CCC4C[C@@H](O)CC[C@]4(C)C3=CC[C@]12C (stereo partly shown) [EK100]
Activity of GPx in liver compared to EtOH ([1]; EK100 10 mg/kg/day (EK100_10X) vs EtOH group, p<0.05): significantly increased
Activity of GPx ([1]; EK100_1X: 1 mg/kg/day gavage): 114.16 ± 2.40^b unit/mg protein
Activity of GPx ([1]; EK100_5X: 5 mg/kg/day gavage): 110.74 ± 3.52^b unit/mg protein
Activity of GPx ([1]; EK100_10X: 10 mg/kg/day gavage): 131.89 ± 6.83^a unit/mg protein
Number of fat vacuoles in liver tissue compared to EtOH (male C57BL/6 mice [2]; H&E staining, FIGS. 7A-7E): markedly decreased
Whitening phenomenon of liver compared to EtOH (male C57BL/6 mice [2]; liver appearance, FIGS. 6A-6E): decreased
TBARS value of liver compared to EtOH (male C57BL/6 mice [3]; [12]): significantly decreased
TBARS value (male C57BL/6 mice [3]; EK100_1X: 1 mg/kg/day gavage): 0.56 ± 0.04^b nmol malondialdehyde/mg protein
TBARS value (male C57BL/6 mice [3]; EK100_5X: 5 mg/kg/day gavage): 0.54 ± 0.05^b nmol malondialdehyde/mg protein
TBARS value (male C57BL/6 mice [3]; EK100_10X: 10 mg/kg/day gavage): 0.46 ± 0.04^b nmol malondialdehyde/mg protein
Protein expression of CYP2E1 in liver compared to EtOH (CYP2E1): significantly decreased
Activity of ADH in liver compared to control or EtOH [4]: significantly increased
Activity of AST in serum compared to EtOH [5]: significantly decreased
Amount of TAG in serum compared to EtOH (male C57BL/6 mice [6]): significantly decreased
Amount of TC in serum compared to EtOH (male C57BL/6 mice [6]): significantly decreased
HAI score of periportal inflammation (necrosis) compared to EtOH (male C57BL/6 mice [7]): significantly decreased
HAI score of portal inflammation compared to EtOH (male C57BL/6 mice [7]): significantly decreased
Expressions of pro-inflammatory genes in liver compared to EtOH [8]: significantly decreased
Amount of TAG in liver compared to EtOH (male C57BL/6 mice [9]): significantly decreased
Amount of TC in liver compared to EtOH (male C57BL/6 mice [9]): significantly decreased
TEAC value of liver compared to EtOH (male C57BL/6 mice [10]; [12]): significantly increased
TEAC value (male C57BL/6 mice [10]; EK100_1X: 1 mg/kg/day gavage): 69.18 ± 2.77^a nmol/mg protein
TEAC value (male C57BL/6 mice [10]; EK100_5X: 5 mg/kg/day gavage): 75.23 ± 2.61^a nmol/mg protein
TEAC value (male C57BL/6 mice [10]; EK100_10X: 10 mg/kg/day gavage): 70.50 ± 2.25^a nmol/mg protein
Relative weight of epididymal fat pad compared to EtOH [11, 12]: significantly lower
Relative weight of abdominal fat pad ([11]; EK100_1X: 1 mg/kg/day gavage): 0.21 ± 0.03^c g/100 g of mice body weight
Relative weight of epididymal fat pad ([11]; EK100_1X: 1 mg/kg/day gavage): 1.30 ± 0.11^c g/100 g of mice body weight
Relative weight of heart ([11]; EK100_1X: 1 mg/kg/day gavage): 0.53 ± 0.03^bc g/100 g of mice body weight
Relative weight of kidney ([11]; EK100_1X: 1 mg/kg/day gavage): 1.33 ± 0.04^a g/100 g of mice body weight
Relative weight of liver ([11]; EK100_1X: 1 mg/kg/day gavage): 4.50 ± 0.14^a g/100 g of mice body weight
Relative weight of spleen ([11]; EK100_1X: 1 mg/kg/day gavage): 0.53 ± 0.03^a g/100 g of mice body weight
Relative weight of abdominal fat pad ([11]; EK100_5X: 5 mg/kg/day gavage): 0.41 ± 0.06^b g/100 g of mice body weight
Relative weight of epididymal fat pad ([11]; EK100_5X: 5 mg/kg/day gavage): 1.42 ± 0.14^c g/100 g of mice body weight
Relative weight of heart ([11]; EK100_5X: 5 mg/kg/day gavage): 0.57 ± 0.04^ab g/100 g of mice body weight
Relative weight of kidney ([11]; EK100_5X: 5 mg/kg/day gavage): 1.28 ± 0.05^a g/100 g of mice body weight
Relative weight of liver ([11]; EK100_5X: 5 mg/kg/day gavage): 4.33 ± 0.20^a g/100 g of mice body weight
Relative weight of spleen ([11]; EK100_5X: 5 mg/kg/day gavage): 0.55 ± 0.04^a g/100 g of mice body weight
Relative weight of abdominal fat pad ([11]; EK100_10X: 10 mg/kg/day gavage): 0.40 ± 0.04^b g/100 g of mice body weight
Relative weight of epididymal fat pad ([11]; EK100_10X: 10 mg/kg/day gavage): 1.62 ± 0.07^c g/100 g of mice body weight
Relative weight of heart ([11]; EK100_10X: 10 mg/kg/day gavage): 0.51 ± 0.01^bc g/100 g of mice body weight
Relative weight of kidney ([11]; EK100_10X: 10 mg/kg/day gavage): 1.14 ± 0.02^b g/100 g of mice body weight
Relative weight of liver ([11]; EK100_10X: 10 mg/kg/day gavage): 4.48 ± 0.10^a g/100 g of mice body weight
Relative weight of spleen ([11]; EK100_10X: 10 mg/kg/day gavage): 0.55 ± 0.02^a g/100 g of mice body weight
